Test results taken from patent US7402606B2, “Derivatives of 1-(oxoaminoacetyl) pentylcarbamate as cathepsin K inhibitors for the treatment of bone loss” (SmithKline Beecham Corporation, priority 2002, dated 2008).

molecular target: T1, human cathepsin K (Homo sapiens, UniProt P43235); test: Cathepsin K inhibition assay, human recombinant enzyme, fluorogenic substrate Cbz-Phe-Arg-AMC; assay type: biochemical; settings: Table 1, human cathepsin K; read-out: h Cat K IC50
T1 construct: The proform of cathepsin K was converted to mature cathepsin K by brief exposure to pH 4; made in house; host or cells: baculovirus; Trichoplusia ni High Five cells (virus raised in Sf-9)
T1 sequence (P43235 115-329): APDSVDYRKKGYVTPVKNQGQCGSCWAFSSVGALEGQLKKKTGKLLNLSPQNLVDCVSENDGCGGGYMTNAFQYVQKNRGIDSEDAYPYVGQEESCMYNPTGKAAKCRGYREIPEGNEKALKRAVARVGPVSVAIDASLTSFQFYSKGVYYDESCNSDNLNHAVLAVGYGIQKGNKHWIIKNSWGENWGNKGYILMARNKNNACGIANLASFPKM
Experimental: All assays for cathepsin K were carried out with human and rat recombinant enzyme. Assays for cathepsins S ? V were also carried out with human recombinant enzyme. Assays for human cathepsins B, H, and L were carried out with enzyme, purchased from Athens Research and Technology, Inc., prepared from human liver tissue. […] A stock substrate solution of Cbz-Phe-Arg-AMC was prepared at a concentration of 50 mM in dimethyl sulfoxide. This substrate was diluted into the assay for a final substrate concentration of 10 μM in the rat cathepsin K, human cathepsin K, and human cathepsin B assays; a final substrate concentration of 5 μM in the human cathepsin L assay; and a final substrate concentration of 2 μM in the human cathepsin V assay.
All assays contained 10% dimethyl sulfoxide. […] All assays were conducted at 30° C. Product fluorescence (excitation at 360 nm; emission at 440 nm, (except cathepsin H which used excitation at 340 nm; emission at 420 nm)) was monitored with a PerSeptive Biosystems Cytofluor II fluorescence plate reader. Product progress curves were generated over 2.3 h monitoring the formation of 7-amino-4-methylcoumarin product (or β-naphthalamide for cathepsin H).
Human and rat Cathepsin K:
Two liters of Spodoptera frugiperda (Sf-9) cells (ATCC) were grown in Grace's Supplemented medium (Life Technologies) supplemented with 2 g/L glucose, 10% fetal bovine serum (HyClone) and 0.1% pluronic F-68 (Life Technologies). […] The cells continued to grow for 72 h post-infection, before the virus was harvested by centrifugation at 1400×g for 30 min.
One and one-half liters of Trichoplusia ni (T. ni) High Five (™) cells [JRH Biosciences, Woodland, Calif. […] The cells were grown for 24 h at 28° C., 50 RPM, and 50% dissolved oxygen. […] Media were separated from cells at a rate of 1 L/min using the Centritech 100 ™ continuous-flow centrifuge (DuPont) operating at 200×g.
Protein Purification: Media (human and rat) were filtered through a Whatman 3 filter, and then loaded onto a 25 mL. Poros HS II (26 mm×47 mm) cation exchange column equilibrated in 25 mM sodium acetate at pH 5.5 (equilibration buffer). The column was washed until the absorbance reached the baseline value, and then the protein was eluted with a linear gradient from 0-2 M sodium chloride in the equilibration buffer. Column fractions were analyzed by SDS-PAGE, N-terminal sequencing, and mass spectrometry. Fractions containing the proform of cathepsin K were pooled and frozen at −80° C. The proform was concentrated in an Amicon Centriprep 10 and fractionated with a Superdex 75 column (26 mm×600 mm, Pharmacia) equilibrated in 400 mM sodium chloride, 25 mM sodium acetate at pH 5.5.
Cathepsin K Activation: The proform of cathepsin K was converted to mature cathepsin K by brief exposure to pH 4 in the presence of 5 mM L-cysteine. Typically, 5 mM L-cysteine was added to 10 mL of approximately 1 mg/mL procathepsin K. One mL of this solution was diluted ten-fold into 450 mM sodium acetate at pH 4.0 containing 5 mM L-cysteine. This solution was reacted at 23° C. for 2 min before neutralization with 2 mL, 1.8 M sodium acetate at pH 6.0. The neutralized sample was added to the remaining 9 mL of procathepsin K. The mixture was incubated at 4° C. for 2-3 days. The activated cathepsin K was chromatographed on a Poros HS II column as described above.
Potential inhibitors were evaluated using the progress curve method. Assays were carried out in the presence of variable concentrations of test compound. Reactions were initiated by addition of buffered solutions of inhibitor and substrate to enzyme. Data analysis was conducted according to one of two procedures depending on the appearance of the progress curves in the presence of inhibitors. […] Ki values were calculated from IC50 values using equation 2 assuming a competitive model.

| Structure (SMILES) | IC50 [nM] |
| --- | --- |
| CCCC[C@H](NC(=O)O[C@@H]1CN(C(=O)c2snnc2C)CC1(C)C)C(=O)C(=O)N[C@H](C)c1ccccc1 [Example 13, (3S)-4,4-Dimethyl-1-[(4-methyl-1,2,3-thiadiazol-5-yl)carbonyl]pyrrolidinyl (1S)-1-(oxo {[(1R)-1-phenylethyl]amino}acetyl)pentylcarbamate] | 10 to 100 |
| CCCC[C@H](NC(=O)O[C@@H]1CN(C(=O)Oc2cccc(Oc3ccccc3)c2)CC1(C)C)C(=O)C(=O)N[C@H](C)c1ccccc1 [Example 59, 3-Phenoxyphenyl (4S)-3,3-dimethyl-4-[({[(1S)-1-(oxo{[(1R)-1-phenylethyl]amino}acetyl)pentyl]amino}carbonyl)oxy]-1-pyrrolidinecarboxylate] | 10 to 100 |
| CCCC[C@H](NC(=O)O[C@@H]1CN(C(=O)c2cc3ccccc3n2C)CC1(C)C)C(=O)C(=O)N[C@H](C)c1ccccc1 [Example 28, (3S)-4,4-Dimethyl-1-[(1-methyl-1H-indol-2-yl)carbonyl]pyrrolidinyl (1S)-1-(oxo{[(1R)-1-phenylethyl]amino}acetyl)pentylcarbamate] | 10 to 100 |
| CCCC[C@H](NC(=O)O[C@@H]1CN(C(=O)OCCc2ccccc2)CC1(C)C)C(=O)C(=O)N[C@H](C)c1ccccc1 [Example 45, 2-Phenylethyl (4S)-3,3-dimethyl-4-[({[(1S)-1-(oxo {[(1R)-1-phenylethyl]amino}acetyl)pentyl]amino}carbonyl)oxy]-1-pyrrolidinecarboxylate] | 10 to 100 |
| CCCC[C@H](NC(=O)O[C@@H]1CN(C(=O)Cc2ccc(-c3ccccc3)cc2)CC1(C)C)C(=O)C(=O)N[C@H](C)c1ccccc1 [Example 30, (3S)-1-([1,1′-Biphenyl]-4-ylacetyl)-4,4-dimethylpyrrolidinyl (1S)-1-(oxo {[(1R)-1-phenylethyl]amino}acetyl)pentylcarbamate] | 10 to 100 |
| CCCC[C@H](NC(=O)O[C@@H]1CN(C(=O)Cc2ccccc2Oc2ccccc2)CC1(C)C)C(=O)C(=O)N[C@H](C)c1ccccc1 [Example 31, (3S)-4,4-Dimethyl-1-[(2-phenoxyphenyl)acetyl]pyrrolidinyl (1S)-1-(oxo{[(1R)-1-phenylethyl]amino}acetyl)pentylcarbamate] | 10 to 100 |
| CCCC[C@H](NC(=O)O[C@@H]1CN(C(=O)Cc2cccc(Oc3ccccc3)c2)CC1(C)C)C(=O)C(=O)N[C@H](C)c1ccccc1 [Example 23, (3S)-4,4-Dimethyl-1-[(3-phenoxyphenyl)acetyl]pyrrolidinyl (1S)-1-(oxo{[(1R)-1-phenylethyl]amino}acetyl)pentylcarbamate] | 10 to 100 |
| CCCC[C@H](NC(=O)O[C@@H]1CN(C(=O)Nc2ccccc2)CC1(C)C)C(=O)C(=O)N[C@H](C)c1ccccc1 [Example 63, (3S)-1-(Anilinocarbonyl)-4,4-dimethylpyrrolidinyl (1S)-1-(oxo{[(1R)-1-phenylethyl]amino}acetyl)pentylcarbamate] | 1 to 10 |
| CCCC[C@H](NC(=O)O[C@@H]1CN(C(=O)Oc2ccc(-c3csnn3)cc2)CC1(C)C)C(=O)C(=O)N[C@H](C)c1ccccc1 [Example 61, 4-(1,2,3-Thiadiazol-4-yl)phenyl (4S)-3,3-dimethyl-4-[({[(1S)-1-(oxo{[(1R)-1-phenylethyl]amino}acetyl)pentyl]amino}carbonyl)oxy]-1-pyrrolidinecarboxylate] | 10 to 100 |
| CCCC[C@H](NC(=O)O[C@@H]1CN(C(=O)Oc2ccc(Oc3ccccc3)cc2)CC1(C)C)C(=O)C(=O)N[C@H](C)c1ccccc1 [Example 58, 4-Phenoxyphenyl (4S)-3,3-dimethyl-4-[({[(1S)-1-(oxo{[(1R)-1-phenylethyl]amino}acetyl)pentyl]amino}carbonyl)oxy]-1-pyrrolidinecarboxylate] | 10 to 100 |
| CCCC[C@H](NC(=O)OC1C(=O)N(C(=O)OCc2ccccc2)CC1(C)C)C(=O)C(=O)N[C@H](C)c1ccccc1 (stereo partly drawn) [Example 5, Benzyl 4,4-dimethyl-2-oxo-3-[({[(1S)-1-(oxo{[(1R)-1-phenylethyl]amino}acetyl)pentyl]amino}carbonyl)oxy]-1-pyrrolidinecarboxylate] | 10 to 100 |
| CCCC[C@H](NC(=O)O[C@@H]1CN(C(=O)Cc2ccc(C(C)(C)C)cc2)CC1(C)C)C(=O)C(=O)N[C@H](C)c1ccccc1 [Example 25, (3S)-1-[(4-tert-Butylphenyl)acetyl]-4,4-dimethylpyrrolidinyl (1S)-1-(oxo{[(1R)-1-phenylethyl]amino}acetyl)pentylcarbamate] | 10 to 100 |
| CCCC[C@H](NC(=O)O[C@@H]1CN(C(=O)OCc2c(C)noc2-c2cc(C)on2)CC1(C)C)C(=O)C(=O)N[C@H](C)c1ccccc1 [Example 50, [3-Methyl-5-(5-methyl-isoxazol-3-yl)-4-isoxazolyl]methyl (4S)-3,3-dimethyl-4-[({[(1S)-1-(oxo{[(1R)-1-phenylethyl]amino}acetyl)pentyl]amino}carbonyl)oxy]-1-pyrrolidinecarboxylate] | 10 to 100 |
| CCCCC(NC(=O)O[C@@H]1CN(C(=O)Cc2cccnc2)CC1(C)C)C(=O)C(=O)N[C@H](C)c1ccccc1 (stereo partly drawn) [Example 33, (3S)-4,4-Dimethyl-1-(3-pyridinylacetyl)pyrrolidinyl 1-(oxo{[(1R)-1-phenylethyl]amino}acetyl)pentylcarbamate] | 10 to 100 |
| CCCC[C@H](NC(=O)O[C@@H]1CN(C(=O)OCCc2scnc2C)CC1(C)C)C(=O)C(=O)N[C@H](C)c1ccccc1 [Example 51, 2-(4-Methyl-1,3-thiazol-5-yl)ethyl (4S)-3,3-dimethyl-4-[({[(1S)-1-(oxo {[(1R)-1-phenylethyl]amino}acetyl)pentyl]amino}carbonyl)oxy]-1-pyrrolidinecarboxylate] | 1 to 10 |
| CCCC[C@H](NC(=O)O[C@@H]1CN(C(=O)N2CCOCC2)CC1(C)C)C(=O)C(=O)N[C@H](C)c1ccccc1 [Example 73, (3S)-4,4-Dimethyl-1-(4-morpholinylcarbonyl)pyrrolidinyl (1S)-1-(oxo{[(1R)-1-phenylethyl]amino}acetyl)pentylcarbamate] | 10 to 100 |
| CCCC[C@H](NC(=O)O[C@@H]1CN(C(=O)Oc2ccc3ccccc3c2)CC1(C)C)C(=O)C(=O)N[C@H](C)c1ccccc1 [Example 60, 2-Naphthyl (4S)-3,3-dimethyl-4-[({[(1S)-1-(oxo {[(1R)-1-phenylethyl]amino}acetyl)pentyl]amino}carbonyl)oxy]-1-pyrrolidinecarboxylate] | 10 to 100 |
| CCCC[C@H](NC(=O)O[C@@H]1CN(C(=O)c2cc3ccccc3[nH]2)CC1(C)C)C(=O)C(=O)N[C@H](C)c1ccccc1 [Example 32, (3S)-1-(1H-Indol-2-ylcarbonyl)-4,4-dimethylpyrrolidinyl (1S)-1-(oxo {[(1R)-1-phenylethyl]amino}acetyl)pentylcarbamate] | 10 to 100 |
| CCCCC(NC(=O)O[C@@H]1COCC1(C)C)C(=O)C(=O)N[C@H](C)c1ccccc1 (stereo partly drawn) [Example 83, (3S)-4,4-Dimethyltetrahydro-3-furanyl 1-(oxo{[(1R)-1-phenylethyl]amino}acetyl)pentylcarbamate] | 10 to 100 |
| CCCC[C@H](NC(=O)O[C@@H]1CN(C(=O)OCc2noc(-c3cccs3)n2)CC1(C)C)C(=O)C(=O)N[C@H](C)c1ccccc1 [Example 55, [5-(2-Thienyl)-1,2,4-oxadiazol-3-yl]methyl (4S)-3,3-dimethyl-4-[({[(1S)-1-(oxo{[(1R)-1-phenylethyl]amino}acetyl)pentyl]amino}carbonyl)oxy]-1-pyrrolidinecarboxylate] | 10 to 100 |
